Experimental data taken from patent US20110092544A1, “FUNGICIDAL PYRIDINES” (E.I. DU PONT DE nemours and company, priority 2008, published 2011).

Key:
Assay type in all cases: in vivo
Botrytis cinerea = test: Test F: tomato botrytis, preventive spray on tomato seedlings, visual disease rating; conditions: for pest or weed control at 200 ppm: Botrytis cinerea, 120 h
Procedure, shortened: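 Tomato seedlings sprayed to run-off with compound suspended in acetone/water (50/50) plus 250 ppm Trem 014, at 200 ppm (≈500 g/ha) or 40 ppm where marked. Inoculated next day with B. cinerea spores, 48 h saturated atmosphere at 20 °C, then 3 days at 24 °C. Visual rating, 0–100% disease control relative to controls.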

Septoria nodorum = test: Test D: wheat glume blotch, preventive spray on wheat seedlings, visual disease rating; conditions: for pest or weed control at 200 ppm: Parastagonospora nodorum, 216 h
Procedure, shortened: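 Compounds in 3% acetone, then 50/50 acetone–water with 250 ppm Trem 014, sprayed to run-off at 200 ppm (500 g/ha; some at 40 ppm) one day before spore inoculation. Held 48 h saturated at 20 °C, then 7 days at 20 °C; visual rating as % disease control vs untreated (0–100).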

[1] = test system: Erysiphe graminis f. sp. tritici; test: Test A: wheat powdery mildew, preventive spray on wheat seedlings, visual disease rating; conditions: for pest or weed control at 200 ppm: Blumeria graminis, 192 h
Procedure, shortened: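 Acetone/water (50/50) suspension with 250 ppm surfactant sprayed to run-off on wheat seedlings (200 ppm ≈ 500 g/ha); inoculated next day with E. graminis spore dust. Incubated 8 days at 20° C, then visually rated 0–100% disease control versus untreated controls; tests at 200 ppm or 40 ppm.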

Rhizoctonia oryzae = test: Test G: turf brown patch, preventive spray on creeping bent grass seedlings, visual disease rating; conditions: for pest or weed control at 200 ppm: Waitea circinata, in Agrostis stolonifera, 120 h
Source text: (§1) General protocol for preparing test suspensions for Tests A-H: The test compounds were first dissolved in acetone in an amount equal to 3% of the final volume and then suspended at the desired concentration (in ppm) in acetone and purified water (50/50 mix) containing 250 ppm of the surfactant Trem® 014 (polyhydric alcohol esters). The resulting test suspensions were then used in tests A-H. Spraying a 200 ppm test suspension to the point of run-off on the test plants was the equivalent of a rate of 500 g/ha.
The test suspension was sprayed to the point of run-off on creeping bent grass seedlings. The following day the seedlings were inoculated with a spore suspension of Rhizoctonia oryzae (the causal agent of turf brown patch) and incubated in a saturated atmosphere at 27° C. for 48 h, and then moved to a growth chamber at 27° C. for 3 days, after which time disease ratings were visually made.
(§2) Results for Tests A-H are given in Table A. In the table, a rating of 100 indicates 100% disease control and a rating of 0 indicates no disease control (relative to the controls). A dash (-) indicates no test results. All results are for compounds tested at 200 ppm except where the compound number is followed by “*” which indicates the compound was tested at 40 ppm.

Alternaria solani = test: Test E: tomato early blight, preventive spray on tomato seedlings, visual disease rating; conditions: for pest or weed control at 200 ppm: Alternaria solani, 168 h
Procedure, shortened: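 Seedlings sprayed to run-off with compound in acetone/water plus 250 ppm Trem 014 (200 ppm ≈ 500 g/ha), inoculated with spores next day. Held 48 h saturated at 27 °C, then 5 days at 20 °C; visual rating 0–100% disease control relative to controls.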

Septoria tritici = test: Test C: wheat leaf blotch, preventive spray on wheat seedlings, visual disease rating; conditions: 200 ppm, 100 = 100% disease control, 0 = no control
Procedure, shortened: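 Wheat seedlings sprayed to run-off with compound in acetone/water plus 250 ppm surfactant at 200 ppm (≈500 g/ha), or 40 ppm where marked; inoculated with Septoria tritici next day. Held saturated at 20 °C for 48 h, then 19 days at 20 °C; disease control rated visually 0–100 versus controls.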

[2] = test system: Puccinia recondite f. sp. tritici; test: Test B: wheat leaf rust, preventive spray on wheat seedlings, visual disease rating; conditions: for pest or weed control at 200 ppm: 192 h
Procedure, shortened: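 Wheat seedlings were sprayed to run-off with compound suspension, 200 ppm (≈500 g/ha) or 40 ppm where marked, containing surfactant in acetone/water. Inoculation with Puccinia recondita spores followed one day later, then 24 h in saturated humidity at 20° C and 7 days at 20° C. Disease control was rated visually, 0–100% versus controls.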

Plasmopara viticola = test: Test H: grape downy mildew, spray after inoculation of grape seedlings, visual disease rating; conditions: 200 ppm, 100 = 100% disease control, 0 = no control
Source text: as §1
Grape seedlings were inoculated with a spore suspension of Plasmopara viticola (the causal agent of grape downy mildew) and incubated in a saturated atmosphere at 20° C. for 24 h. After a short drying period, the test suspension was sprayed to the point of run-off on the grape seedlings, and then moved to a growth chamber at 20° C. for 6 days, after which time the test units were placed back into a saturated atmosphere at 20° C. for 24 h. Upon removal, disease ratings were visually made.
as §2

[3] = 200 ppm, 100 = 100% disease control, 0 = no control
[4] = 40 ppm (compound number followed by *)

Row | SMILES | Test F rating (% disease control) (Botrytis cinerea; [3]) | Test D rating (% disease control) (Septoria nodorum; [3]) | Test A rating (% disease control) [1, 3] | Test G rating (% disease control) (Rhizoctonia oryzae; [3]) | Test E rating (% disease control) (Alternaria solani; [3]) | Test C rating (% disease control) (Septoria tritici) | Test B rating (% disease control) [2, 3] | Test H rating (% disease control) (Plasmopara viticola) | further results
1 | C=C(C)c1cnc(C)c(-c2c(F)cc(F)cc2F)c1-c1cc(OC)cc(OC)c1 [Compound 43] | 100% | 78% | 100% | 100% | 100% | 100% | 100% | – | –
2 | COc1cc(OC)cc(-c2c(-c3ccccc3F)cnc(C)c2-c2ccccc2)c1 [Compound 32] | 99% | 0% | 98% | 99% | 59% | 99% | 96% | 0% | –
3 | COc1cc(OC)cc(-c2c(C(C)C)cnc(C)c2-c2c(F)cccc2F)c1 [Compound 45] | 100% | 0% | 99% | 99% | 94% | 100% | 100% | – | –
4 | COc1cc(OC)cc(-c2c(C3CCCCC3)cnc(C)c2-c2ccc(F)cc2)c1 [Compound 47] | 96% | 0% | 91% | 99% | 67% | – | 97% | – | –
5 | COc1cc(OC)cc(-c2c(-c3ccccc3)cnc(C)c2-c2ccc(F)cc2)c1 [Compound 34, 4-(3,5-dimethoxyphenyl)-3-(4-fluorophenyl)-5-phenyl-2-methylpyridine] | – | – | – | – | – | – | – | – | pest or weed control at 200 ppm (Botrytis cinerea; [3]): 99%; pest or weed control at 200 ppm (Septoria nodorum; [3]): 77%; pest or weed control at 200 ppm [1, 3]: 96%; pest or weed control at 200 ppm (Rhizoctonia oryzae; [3]): 63%; pest or weed control at 200 ppm (Alternaria solani; [3]): 96%; pest or weed control at 200 ppm (Septoria tritici; Zymoseptoria tritici, 504 h): 100%; pest or weed control at 200 ppm [2, 3]: 96%; pest or weed control at 200 ppm (Plasmopara viticola; Plasmopara viticola, 192 h): 0%
6 | COc1cc(OC)cc(-c2c(-c3ccccc3)c(C)nc(C)c2-c2ccccc2F)c1 [Compound 23] | 99% | 0% | 62% | 0% | 0% | 83% | 80% | 0% | –
7 | COc1cc(OC)cc(-c2c(C(C)C)c[n+]([O-])c(C)c2-c2ccccc2)c1 [Compound 5] | 99% | 0% | 98% | 0% | 90% | 95% | 92% | 0% | –
8 | COc1cc(OC)cc(-c2c(-c3ccc(F)cc3)c(C)nc(Cl)c2C2CCCC2)c1 [Compound 49, 2-chloro-3-cyclopentyl-4-(3,5-dimethoxyphenyl)-5-(4-fluorophenyl)-6-methylpyridine] | – | – | – | – | – | – | – | – | pest or weed control at 200 ppm (Botrytis cinerea; [3]): 0%; pest or weed control at 200 ppm (Septoria nodorum; [3]): 0%; pest or weed control at 200 ppm [1, 3]: 0%; pest or weed control at 200 ppm (Rhizoctonia oryzae; [3]): 0%; pest or weed control at 200 ppm (Alternaria solani; [3]): 16%; pest or weed control at 200 ppm [2, 3]: 0%
9 | COc1cc(OC)cc(-c2c(C3CCCC3)cnc(C)c2-c2ccc(F)cc2)c1 [Compound 50, 5-cyclopentyl-4-(3,5-dimethoxyphenyl)-3-(4-fluorophenyl)-2-methylpyridine] | – | – | – | – | – | – | – | – | pest or weed control at 200 ppm (Botrytis cinerea; [3]): 97%; pest or weed control at 200 ppm (Septoria nodorum; [3]): 60%; pest or weed control at 200 ppm [1, 3]: 92%; pest or weed control at 200 ppm (Rhizoctonia oryzae; [3]): 98%; pest or weed control at 200 ppm (Alternaria solani; [3]): 100%; pest or weed control at 200 ppm [2, 3]: 99%
10 | COc1cc(OC)cc(-c2c(C(C)(C)O)cnc(C)c2-c2ccccc2F)c1 [Compound 18] | 97% | 0% | 98% | 47% | – | 100% | 99% | 0% | –
11 | COc1cc(OC)cc(-c2c(C3=CCCCC3)cnc(C)c2-c2ccc(F)cc2)c1 [Compound 46] | 98% | 0% | 81% | 0% | 31% | – | 95% | – | –
12 | COc1cc(OC)cc(-c2c(C(C)C)cnc(C)c2-c2c(F)cc(F)cc2F)c1 [Compound 48] | – | – | – | – | – | – | – | – | Test F rating (% disease control) (Botrytis cinerea; [4]): 98%; Test D rating (% disease control) (Septoria nodorum; [4]): 0%; Test A rating (% disease control) [1, 4]: 98%; Test G rating (% disease control) (Rhizoctonia oryzae; [4]): 100%; Test E rating (% disease control) (Alternaria solani; [4]): 99%; Test B rating (% disease control) [2, 4]: 100%
13 | COc1cc(OC)cc(-c2c(C(C)C)cnc(C)c2-c2ccccc2F)c1 [Compound 21] | 98% | 0% | 100% | – | 97% | 100% | 99% | 40% | –
14 | CCc1ncc(C(C)=O)c(-c2cc(OC)cc(OC)c2)c1-c1ccccc1 [Compound 27] | 99% | 0% | 98% | – | 92% | 100% | 80% | 0% | –
15 | COc1cc(OC)cc(-c2c(C(C)(C)O)cnc(C)c2-c2c(F)cccc2F)c1 [Compound 42] | 97% | 98% | 100% | 86% | – | 100% | 100% | 0% | –
16 | CCOC(=O)c1cnc(C)c(-c2ccccc2)c1-c1cc(OC)cc(OC)c1F [Compound 26] | 98% | 0% | 94% | – | 0% | 86% | 68% | 0% | –
17 | COc1cc(OC)cc(-c2c(C(C)(C)O)c[n+]([O-])c(C)c2-c2ccccc2)c1 [Compound 52] | 0% | 0% | 25% | 0% | 0% | – | 0% | 0% | –
18 | CCOC(=O)c1cnc(C)c(-c2ccccc2)c1-c1cc(OC)ccc1F [Compound 15] | 96% | 0% | 82% | – | 0% | 7% | 0% | 0% | –
